Test results published in patent publication US20250236610A1, “3-[(1H-PYRAZOL-4-YL)OXY]PYRAZIN-2-AMINE COMPOUNDS AS HPK1 INHIBITOR AND USE THEREOF” (BeiGene, Ltd., priority 2020, published 2025).

Key:
[1] = target: HPK1 kinase (aa1-346, Life Technologies) (Homo sapiens (Human), UniProt Q92918); test: HPK Kinase Activity Assay at 1 mM ATP (TR-FRET); format: biochemical; conditions: HPK1 kinase 40 nM, 0.5 μM STK1 substrate, read-out: Enzymatic activity IC50
[2] = tested on: pSLP76(S376) level in Jurkat cell line; test: Cellular pSLP76(S376) HTRF Assay; format: cell-based; conditions: Homo sapiens, Jurkat cells, 2 h compound treatment, 0.05 μg/mL anti-human CD3 (OKT3) 30 min

HPK1 kinase (aa1-346, Life Technologies), sequence (Q92918 1-346): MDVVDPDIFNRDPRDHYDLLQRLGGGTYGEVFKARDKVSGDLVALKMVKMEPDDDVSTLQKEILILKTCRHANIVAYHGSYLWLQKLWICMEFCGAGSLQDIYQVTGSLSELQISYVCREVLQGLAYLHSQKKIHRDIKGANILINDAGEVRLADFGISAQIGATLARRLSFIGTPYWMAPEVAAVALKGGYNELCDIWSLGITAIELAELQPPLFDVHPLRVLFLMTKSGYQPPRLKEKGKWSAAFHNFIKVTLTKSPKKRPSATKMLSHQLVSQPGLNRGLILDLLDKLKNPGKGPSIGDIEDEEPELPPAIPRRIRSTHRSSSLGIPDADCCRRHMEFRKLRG

Row | IC50 [1] | IC50 [2] | Compound
1 | 44 nM | – | C[C@@H]1COCCN1c1cc(-c2cnc(N)c(Oc3cnn(C4CCN(C)CC4)c3)n2)cc([C@@]2(O)CCO[C@@H]2C)c1 (single isomer, unassigned) [Example A95A]
2 | 4.5 nM | 68 nM | C[C@@H]1COCCN1c1cc(-c2cnc(N)c(Oc3cnn(C4CCN(C)CC4)c3)n2)cc([C@]2(O)CCO[C@H]2C)c1 (single isomer, unassigned) [Example A95B]
